pIC50: −log10 of the molar value. Some results are limits rather than exact numbers.

Test [1] has as its target T1, CCK-A (Rattus norvegicus, UniProt P30551).
T1 sequence (P30551 1-444): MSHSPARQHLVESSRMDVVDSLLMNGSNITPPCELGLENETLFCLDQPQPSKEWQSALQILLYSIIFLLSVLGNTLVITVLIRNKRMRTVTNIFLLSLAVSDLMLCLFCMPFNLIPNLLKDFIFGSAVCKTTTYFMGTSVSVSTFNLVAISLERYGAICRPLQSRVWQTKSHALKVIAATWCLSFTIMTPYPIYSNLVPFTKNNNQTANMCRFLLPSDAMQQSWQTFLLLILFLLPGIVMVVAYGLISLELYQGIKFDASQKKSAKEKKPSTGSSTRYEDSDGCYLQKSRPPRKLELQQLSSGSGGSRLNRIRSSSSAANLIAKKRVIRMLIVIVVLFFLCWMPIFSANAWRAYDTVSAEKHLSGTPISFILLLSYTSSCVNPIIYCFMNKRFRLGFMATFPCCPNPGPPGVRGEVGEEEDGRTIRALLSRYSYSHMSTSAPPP
Nature of the test: biochemical. The format is binding. Conditions: rat pancreas (CCK-A), 125I-CCK; read-out: CCK RECEPTOR BINDING RESULTS IC50 125I-CCK Pancreas. The procedure:
The CCK-A and CCK-B antagonising activity of the compounds described herein was evaluated using the assays described in published European patent application no. 0514133. The method essentially involves determining the concentration of the test compound required to displace 50% of the specific ^125 I-CCK from rat pancreas (CCK-A) or guinea pig brain (CCK-B).

The target in test [2] is T2, CCK-B (Cavia porcellus, UniProt H0VZC5).
T2 construct: guinea pig brain (CCK-B); from tissue; host or cells: guinea pig brain
T2 sequence (H0VZC5 1-426): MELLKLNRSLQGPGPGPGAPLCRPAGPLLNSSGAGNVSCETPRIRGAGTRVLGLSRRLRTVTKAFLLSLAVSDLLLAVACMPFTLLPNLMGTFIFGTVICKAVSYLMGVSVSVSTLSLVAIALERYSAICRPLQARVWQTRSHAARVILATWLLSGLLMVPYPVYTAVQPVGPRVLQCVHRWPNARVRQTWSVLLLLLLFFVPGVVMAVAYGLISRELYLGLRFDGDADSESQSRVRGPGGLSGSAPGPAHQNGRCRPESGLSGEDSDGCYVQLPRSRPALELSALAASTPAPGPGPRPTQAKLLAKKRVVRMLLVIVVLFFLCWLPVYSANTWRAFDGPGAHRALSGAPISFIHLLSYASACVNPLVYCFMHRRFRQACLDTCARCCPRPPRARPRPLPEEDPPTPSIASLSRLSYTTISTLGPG
Nature of the test: displacement of specific 125I-CCK from guinea pig brain (CCK-B receptor binding). Conditions: read-out: CCK RECEPTOR BINDING RESULTS IC50 125I-CCK Brain. On the procedure: The CCK-A and CCK-B antagonising activity of the compounds described herein was evaluated using the assays described in published European patent application no. 0514133. The method essentially involves determining the concentration of the test compound required to displace 50% of the specific ^125 I-CCK from rat pancreas (CCK-A) or guinea pig brain (CCK-B). The data in Table 1 were obtained for compounds of the Examples.

Consider `CCCN1C(=O)C(NC(=O)Nc2cccc(C)c2)N=C(N(C)C2CCCCC2)c2ccccc21` (racemic) [Example 60, N-[3(R,S)-5-(N-Cyclohexyl-N-methylamino)-2,3-dihydro-2-oxo-1-propyl-1H-1,4-benzodiazepin-3-yl]-N'-[3-methylphenyl]urea], for which the pIC50 was 6.73 in test [1] and 8.59 in test [2].

Consider `Cc1cccc(NC(=O)NC2N=C(N(C)C3CCCCC3)c3ccccc3N(C)C2=O)c1` (racemic) [Example 63, N-[3(R,S)-5-(N-Cyclohexyl-N-methylamino)-2,3-dihydro-1-methyl-2-oxo-1H-1,4-benzodiazepin-3-yl]-N'-[3-methylphenyl]urea], for which the pIC50 in test [1] is 6.52; in test [2], 8.87.

In the case of `Cc1cccc(NC(=O)NC2N=C(N(C)C3CCCCCC3)c3ccccc3N(C)C2=O)c1` (racemic) [Example 66, N-[3(R,S)-5-(N-Cycloheptyl-N-methylamino)-2,3-dihydro-1-methyl-2-oxo-1H-1,4-benzodiazepin-3-yl]-N'-[3-methylphenyl]urea], the pIC50 in test [1] was 7.08; in test [2], 9.10.

For the compound `CN1C(=O)C(NC(=O)Nc2ccc3c(c2)CCC3)N=C(N(C)C2CCCCCC2)c2ccccc21` (racemic) [Example 69, N-[3(R,S)-5-(N-Cycloheptyl-N-methylamino)-2,3-dihydro-1-methyl-2-oxo-1H-1,4-benzodiazepin-3-yl]-N'-[5-indanyl]urea], the figures for the pIC50 in test [1] and in test [2] were 6.33 and 8.55, respectively.

In the case of `Cc1cccc(NC(=O)NC2N=C(N(C)Cc3ccccc3)c3ccccc3N(C)C2=O)c1` (racemic) [Example 72, N-[3(R,S)-5-(N-Benzyl-N-methylamino)-2,3-dihydro-1-methyl-2-oxo-1H-1,4-benzodiazepin-3-yl]-N'-[3-methylphenyl]urea], the negative-log IC50 (pIC50) in test [1] was 6.75; in test [2] it was 7.99.

As for `Cc1cccc(NC(=O)NC2N=C(N(C)C3CCN(C)CC3)c3ccccc3N(C)C2=O)c1` (racemic) [Example 73, N-[3(R,S)-5-(N-(4-N-Methylpiperidinyl)-N-methylamino)-2,3-dihydro-1-methyl-2-oxo-1H-1,4-benzodiazepin-3-yl]-N'-[3-methylphenyl]urea], the pIC50 in test [1] is less than 5.52; in test [2], 5.85.

In the case of `Cc1cccc(NC(=O)NC2N=C(N(C)CC3CCCCC3)c3ccccc3N(C)C2=O)c1` (racemic) [Example 74], the pIC50 in test [1] was 6.72; in test [2], 8.14.

Turning to `CCCN(CCC)C1=NC(NC(=O)Nc2cccc(C)c2)C(=O)N(C)c2ccccc21` (racemic) [Example 75, N-[3(R,S)-5-(N,N-Di-^npropylamino)-2,3-dihydro-1-methyl-2-oxo-1H-1,4-benzodiazepin-3-yl]-N-[3-methylphenyl]urea], the negative logarithm of the IC50 (pIC50) in test [1] was 6.50; in test [2], 7.33.

Regarding `CCN(C1=NC(NC(=O)Nc2cccc(C)c2)C(=O)N(C)c2ccccc21)C1CCCC1` (racemic) [Example 76, N-[3(R,S)-5-(N-Cyclopentyl-N-ethylamino)-2,3-dihydro-1-methyl-2-oxo-1H-1,4-benzodiazepin-3-yl]-N'-[3-methylphenyl]urea], the pIC50 in test [1] was 6.12; in test [2], 8.51.

On to `Cc1cccc(NC(=O)NC2N=C(N(C)C3CCC(C)(C)CC3)c3ccccc3N(C)C2=O)c1` (racemic) [Example 77, N-[3(R,S)-5-(N-(4,4-Dimethylcyclohexyl)-N-methylamino)-2,3-dihydro-1-methyl-2-oxo-1H-1,4-benzodiazepin-3-yl]-N'-[3-methylphenyl]urea], for which the negative-log IC50 (pIC50) is 6.87 in test [1] and 7.09 in test [2].

For the compound `CCN(C1=NC(NC(=O)Nc2cccc(C)c2)C(=O)N(C)c2ccccc21)C1CCCCC1` (racemic) [Example 78, N-[3(R,S)-5-(N-Cyclohexyl-N-ethylamino)-2,3-dihydro-1-methyl-2-oxo-1H-1,4-benzodiazepin-3-yl]-N'-3-methylphenyl]urea], the pIC50 in test [1] is 6.05; in test [2], 8.35.

These data come from patent publication US5618812A, “Benzodiazepine derivatives” (Merck Sharp & Dohme, Ltd., priority 1992, dated 1997).
